Data on twelve molecules can be found in BindingDB's records for doi:10.1073/pnas.90.2.408 (Synaptic Pharmaceutical, 1993).

A word on the Ki: it is a dissociation constant, usually derived from enzyme kinetics or from competition with a known ligand. A higher Ki goes with weaker binding.

In the assay the target is T1, 5-hydroxytryptamine receptor 1F (Homo sapiens, UniProt P30939).
T1 sequence (P30939 whole entry): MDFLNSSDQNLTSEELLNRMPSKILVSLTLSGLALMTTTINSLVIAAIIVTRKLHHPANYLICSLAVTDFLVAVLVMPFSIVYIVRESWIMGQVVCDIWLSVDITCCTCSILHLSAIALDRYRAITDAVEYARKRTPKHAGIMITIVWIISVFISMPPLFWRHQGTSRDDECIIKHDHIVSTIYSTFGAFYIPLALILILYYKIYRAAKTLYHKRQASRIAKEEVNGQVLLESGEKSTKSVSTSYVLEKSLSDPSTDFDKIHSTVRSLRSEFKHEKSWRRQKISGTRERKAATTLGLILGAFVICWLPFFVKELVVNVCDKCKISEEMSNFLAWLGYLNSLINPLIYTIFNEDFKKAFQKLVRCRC
Molecule `CCCN(CCC)C1CCc2cccc(O)c2C1` (configuration not stated) showed a Ki of 1770 nM.
Regarding `O=C(CCCN1CCC2(CC1)C(=O)NCN2c1ccccc1)c1ccc(F)cc1` [8-[4-(4-fluorophenyl)-4-oxidanylidene-butyl]-1-phenyl-1,3,8-triazaspiro[4.5]decan-4-one], the Ki was above 10000 nM.
In the case of `COc1ccc2[nH]cc(CCN(C)C)c2c1` [3-(2-DIMETHYLAMINOETHYL)-5-METHOXYINDOLE] it was 37 nM; in that of `CSc1ccc2c(c1)C(N1CCN(C)CC1)Cc1ccccc1S2` (configuration not stated) [methanesulfonic acid;1-methyl-4-(3-methylsulfanyl-5,6-dihydrobenzo[b][1]benzothiepin-5-yl)piperazine], 652 nM; in that of `COc1cc(N)c(Cl)cc1C(=O)NC1CN2CCC1CC2` (configuration not stated) [ZACOPRIDE,R], above 10000 nM.
Turning to `CN1C[C@@H](NS(=O)(=O)N(C)C)C[C@@H]2c3cccc4c3c(cn4C)C[C@H]21` [MESULERGINE], the Ki was above 10000 nM.
In the case of `CC(C)NCC(O)COc1cccc2[nH]ccc12` (configuration not stated) [LB-46] it was above 10000 nM; in that of `O=C(c1ccc(F)cc1)C1CCN(CCn2c(=O)[nH]c3ccccc3c2=O)CC1` [3-(2-{4-[(4-fluorophenyl)carbonyl]piperidin-1-yl}ethyl)-1,2,3,4-tetrahydroquinazoline-2,4-dione], above 10000 nM.
`Cn1cc(CCN)c2cc(O)ccc21` [5-HT,omega-N-Me] registered an inhibitory constant (Ki) of 184 nM.
The molecule `CCCN(CCC)CCc1c[nH]c2ccc(C(N)=O)cc12` [NN-DIPROP-5-CT] registered a Ki of 1610 nM.
`COc1ccc2[nH]cc(CCN)c2c1` [tryptamine, 5-Methoxy] had a Ki of 1170 nM.
The result for `COc1cc(CC(C)N)c(OC)cc1I` (configuration not stated) [[125I]2,5-dimethoxy-4-iodoamphetamine] reads 1740 nM.
